Patent EP1379135B1, “FORMULATIONS COMPRISING ENTRAPPED ACTIVE INGREDIENTS AND USES THEREOF” (THE SCRIPPS RESEARCH INSTITUTE, priority 2001, dated 2002)
Entries after “also recorded” stand apart in the source; their conditions may differ.

Legend:
bradykinin-induced pain = assay: Bradykinin-induced pain after intra-articular administration (walking behavior pain score); type: in vivo; conditions: Wistar rats, Figure 7
Description: The purpose of this study was to investigate the analgesic effects of GlcNAc with or without liposomal formulations, injected intra-articularly into the joint of Wistar rats. Pain was induced by intra-articular administration of bradykinin. Adult male Wistar rats with a weight range from 220g to 250g were obtained from Laboratory Animals Centre, National University of Singapore. Bradykinin and GlcNAc were obtained from Sigma. The liposomes were prepared as described above. 50 µl of GlcNAc solution or an GIcNAc formulated liposome suspension was injected into a rat joint cavity. An equal volume of saline was given intra-articularly as a control. 50 µl of bradykinin (60 µg/ml or at the indicated concentration) was given intra-articularly at different time points following the administration of GlcNAc. Changes in walking behavior caused by intra-articular injection of bradykinin were used to define induced pain criteria in rats. The methods used to observe the pain response are defined in Table 2. The degree of pain was assigned a score according to the criteria in Table 3. Table 2 [table] [table]

[1] = tested on: TNFα induced nitric oxide (NO) production in normal human articular chondrocytes; assay: TNFα induced NO production in chondrocytes; type: cell-based
iNOS mRNA = iNOS mRNA expression (Northern Blot); type: cell-based, human
Description: Total RNA was isolated from 2 x 10^6 chondrocytes stimulated using the STAT-60 reagent (Tel-Test, Friendswood, TX). RNA for each sample was quantified photometrically, and 5 µg was separated on 1.2% agarose, 6% formaldehyde gels. After electrophoresis, the gels were photographed, and the RNA was transferred onto HybondN nylon membranes (BRL, Baithesburg, MD) by capillary blotting. Membranes were air-dried and incubated for 2 hrs at 80°C. Prehybridization was done for 2 hrs at 60°C in 5 x SCC, 1 mM EDTA, 0.2% SDS and 5 x Denhardt solution. Radio-labeled probe was added and hybridization was carried out overnight at 60°C. After hybridization, the filters were rinsed twice in 2 x SSC, 0.1% SDS, washed once in 2 x SCC, 0.1 % SDS at 60°C and once in 0.2 x SCC, 0.1 % SDS at 60°C. The membranes were covered with plastic wrap and exposed with an intensifying screen for 12 hr at -70°C. The probes used for the hybridization were prepared as described earlier (Geng et al., (1993) J. Immunol. 151:6692; Geller et al., (1993) Proc. Natl. Acad. Sci. USA 90:3491).

[2] = In vivo retention of GlcNAc in knee joints after intra-articular administration; parameters: species or system Wistar rats
Description: 50 µl of GlcNAc solution (unlabeled 2.69 mg/ml, labeled 5 µCi/ml, unlabeled:labeled molecule 10,000:1) was injected into knee joint of six rats. These rats (2 animals/time point) were sacrificed at 0, 30 min, and 2 hr after administration of a GlcNAc solution. Two other two rats were injected with normal saline as negative controls. All joints were removed and homogenized with 5 ml of normal saline at 16,000 rpm for about 30 sec. 100 µl of the tissue homogenate was added to 500 µl tissue solubilizer. The solution was incubated at 50 °C for 16 hrs, mixed with 30 µl of glacial acetic acid and 5 ml of liquid scintillation cocktail. The [^3H]GlcNAc activity was measured by a liquid scintillation counter.
Fourteen rats were used for each liposomal formulation. 50 µl of liposome (prepared as disclosed herein, 1.13 µCi/ml, GlcNAc concentration was 0.61 mg/ml, unlabeled:labeled molecule 10,000:1) was injected into each knee joint in twelve rats. Another two rats were injected with 50 µl of normal saline as negative controls. Animals (2 rats/time point) were sacrificed at time points corresponding to 0, 1, 3, 7, 14, 21, and 28 days after administration of GlcNAc. The knee joints were removed and [^3H]GlcNAc activity was determined as disclosed herein.

NF-κB = assay: IL-1β-induced nuclear translocation of NF-κB (gel shift of nuclear extracts); type: cell-based, human
Description: Nuclear protein extracts were prepared as follows: 2 x 10^6 chondrocytes were stimulated as indicated. The cells were harvested by trypsinization, washed once with ice cold PBS and lysed in 10 mM Tris-HCl buffer pH 7.5 containing 2 mM MgCl2, 140 mM NaCl, 0.5 mM DTT, 0.05% Triton X-100, 0.5 mM PMSF, leupeptin 1 µg/ml and aprotinin 1 µg/ml. The nuclei were spun down, resuspended in 20 mM HEPES buffer pH 7.9, containing 25% glycerol, 420 mM NaCl, 1.5 mM MgCl2, 0.2 mM EDTA, 0.5 mM DTT, 0.5 mM PMSF, leupeptin 1 µg/ml and aprotinin 1 µg/ml, and rotated at 4°C for 30 minutes. After removal of the nuclear debris by centrifugation, the protein concentration of the lysate was determined by Bradford assay. Equal amounts of the nuclear extracts (2 µg) were incubated for 15 minutes at room temperature with poly-(dI-dC)poly-(dI-dC) (0.1 mg/ml), BSA (1 mg/ml), 1 x […] counts of double-stranded radiolabeled oligodeoxynucleotide containing the NF-κB consensus DNA binding site (sequence: 5'-[…]-3') in 20 mM HEPES buffer pH 7.9 containing 10% glycerol, 420 mM NaCl, 1.5 mM MgCl2, 0.2 mM EDTA, 0.5 mM DTT and 0.5 mM PMSF. For competition experiments, unlabeled NF-κB oligodeoxynucleotide or oligodeoxynucleotide containing the Oct-1 consensus sequence were added at 100-fold molar excess to the binding reactions 10 minutes prior to the addition of radiolabeled NFκB oligodeoxynucleotide. […]

chondrocytes = assay: Cell viability, MTT assay; type: cell-based, human; conditions: up to 20 mM
hexosaminidase = assay: IL-1β mediated increase in hexosaminidase secretion in chondrocytes; type: cell-based, human

CC(=O)N[C@H]1C(O)O[C@H](CO)[C@@H](O)[C@@H]1O (some centres unmarked) [GlcNAc, N-acetylglucosamine]
analgesic effects on bradykinin-induced pain (pain scores) (bradykinin-induced pain): small, but statistically insignificantly, analgesic effects; also recorded: small, but statistically insignificant, analgesic effects | TNFα induced nitric oxide (NO) production [1]: inhibit | expression of iNOS mRNA (iNOS mRNA): strongly inhibited | half-life ([2]; Wistar, rat, knee joint homogenate, 0.1345 mg per knee joint, single intra-articular administration, saline solution): 4.1 min | GlcNAc retention at the rat knee joints ([2]; after intra-articular administration): moved out of the rat joint rapidly | IL-1β-induced nuclear translocation of NF-κB (NF-κB): did not affect | cell viability (chondrocytes): Neither GA nor GlcNAc at dosages up to 20 mM affected cell viability | IL-1β mediated increase in hexosaminidase secretion (hexosaminidase): did not suppress
